Test results reported in patent US9044421B2, “Treating MUC1-expressing cancers with combination therapies” (GENUS ONCOLOGY, LLC., priority 2012, dated 2015).
Where a SMILES comes first, the peptide text is derived from it. [ ]: non-standard residue; d: D form.

Assays:
PI3-kinase = settings: different cell types (Folks et al., 2008); cited from earlier work
[1] = test system: H-1650 non small cell lung carcinoma cells; experiment: AlamarBlue cell viability assay, H-1650 cells; format: cell-based
Experimental: FIG. 1. H-1650 non small cell lung carcinoma cells in a 96-well plate were treated with various concentrations of purified GO-203-2C for four days. AlamarBlue dye was added to the cells on day 5, and the absorbance was measured at 570 and 600 nm. A 4-parameter curve was obtained by plotting the percentage reduction of alamarBlue calculated using these absorbance values against the concentration of GO-203-2C used.
alamarBlue assay involves the usage of a fluorometric/colorimetric growth indicator, alamarBlue based on the metabolic activity of cells. As cells grow, the innate metabolic activity results in a chemical reduction of alamarBlue. Continued growth maintains a reduced environment while inhibition of growth maintains an oxidized environment. Live cells cause the change of alamarBlue from oxidized (non-fluorescent, blue) form to reduced (fluorescent, red) form. Data can be collected using either fluorescence-based or absorbance-based instrumentation. Fluorescence is monitored at 530-560 nm excitation wavelength and at 590 nm emission wavelength. Absorbance is monitored at 570 am and 600 nm.
This assay was developed with a 96-well plate using ZR-75-1 or MCF-7 (breast carcinoma cell lines) or H1650 non-small cell lung carcinoma cells at different cell concentrations and the optimal cell number was calculated to be 5,000 cells/well in […] volume. The cell number/well has to be optimized for each cell type to be tested. ZR-75-1 or MCF-7 cells were treated with various concentrations of GO-203-2c, LY294002 or GDC-0941 with 2-fold serial dilutions to obtain a total of 8 different concentrations. Cells in triplicate wells were treated with each concentration of GO-203-2c every day, for 4 days. […] At the end of each hour, absorbance of the plate was measured at 570 nm and 600 nm as reference. A set of blank wells was maintained with medium alone and medium with alamarBlue for the purpose of calculating actual absorbance. Obtained absorbance values were plotted against respective concentrations of GO-2-3-2c. […]

p-AKT = experiment: Immunoblotting of total cell lysates with anti-phospho-AKT; format: cell-based; settings: ZR-75-1 cells, combined with LY294002 (FIG. 8)
Experimental: FIG. 8. ZR-75-1 breast carcinoma cells were treated with GO-203-2C and LY294002 either alone or in combination. Total cell lysates were prepared and analyzed by immunoblotting with anti-phospho-AKT (top panel) or anti-AKT (bottom panel).

p-S6K = experiment: Immunoblotting of total cell lysates with anti-phospho-S6K; format: cell-based; settings: ZR-75-1 cells, combined with GDC-0941 (FIG. 9)
Experimental: FIG. 9. ZR-75-1 breast carcinoma cells were treated with GO-203-2C and GDC-0941 either alone or in combination. Total cell lysates were prepared and analyzed by immunoblotting with anti-phospho-S6K (top panel) or anti-S6K (bottom panel).

| Compound | IC50 (PI3-kinase) | live cells ([1]; at 10 mM) | percent reduction of alamarBlue ([1]; highest concentration tested (10 mM)) | percent reduction of alamarBlue ([1]; lowest concentration tested (0.078 mM), untreated control 55.34%) | effect on p-AKT (p-AKT) | effect on p-S6K (p-S6K) |
| --- | --- | --- | --- | --- | --- | --- |
| CS(=O)(=O)N1CCN(Cc2cc3nc(-c4cccc5[nH]ncc45)nc(N4CCOCC4)c3s2)CC1 [GDC-0941] | 0.5 to 2 µM |  |  |  |  |  |
| CC(=O)N[C@H](CCCNC(=N)N)C(=O)N[C@H](CCCNC(=N)N)C(=O)N[C@H](CCCNC(=N)N)C(=O)N[C@H](CCCNC(=N)N)C(=O)N[C@H](CCCNC(=N)N)C(=O)N[C@H](CCCNC(=N)N)C(=O)N[C@H](CCCNC(=N)N)C(=O)N[C@H](CCCNC(=N)N)C(=O)N[C@H](CCCNC(=N)N)C(=O)N[C@H](CS)C(=O)N[C@H](CCC(N)=O)C(=O)N[C@H](CS)C(=O)N[C@H](CCCNC(=N)N)C(=O)N[C@H](CCCNC(=N)N)C(=O)N[C@H](CCCCN)C(=O)N[C@H](CC(N)=O)C(N)=O [GO-203-2C] (Ac-[dR][dR][dR][dR][dR][dR][dR][dR][dR][dC][dQ][dC][dR][dR][dK][dN]-NH2) |  | 12.3% | 6.86% | 55.65% | contributing to the downregulation | contributing to the downregulation |
